This passage reports IC50 results from patent US8618095B2 (Rigel Pharmaceuticals, Inc., priority 2010, dated 2013).

Some results are limits rather than exact numbers.

The IC50 is the midpoint of a concentration-inhibition curve.

This assay has as its system Human mast cells (CHMC). Nature of the assay: LD Tryptase release assay in CHMC (mast cell activation induced by FcγR cross-linking). Particulars: Homo sapiens, Mast cell, anti-IgG stimulation, activity of tryptase released upon degranulation. It is filed as cell-based. How it is done: Compounds were assayed for inhibition of mast cell activation induced by FcγR cross-linking by measuring the activity of tryptase released upon degranulation as follows:
Human mast cells were cultured and differentiated from […] progenitor cell as described in U.S. Patent Publication No. 2005-234049, incorporated herein by reference. For example, 65 μL of various concentrations of the compound to be assayed were prepared in MT (137 mM NaCl, 2.7 mM KCl, 1.8 mM CaCl2, 1.0 mM MgCl2, 5.6 mM Glucose, 20 mM Hepes (pH 7.4), 0.1% Bovine Serum Albumin, (Sigma A4503)) containing 2% MeOH and 1% DMSO, or control buffer were added to duplicate 96-well V-bottom plates. Pelleted and re-suspended (in warm MT) CHMC cells (65 μL) were added to each 96-well plate, mixed and incubated for 1 hour at 37° C. 25 μl of 6× anti-IgG Rabbit anti-human IgG, Affinity purified (Bethyl Laboratories Cat No. A80-105A3) final concentration 1 μg/mL, was added to the test wells. MT (25 μL) was added to control wells. After a 60-minute incubation at 37° C., cells and cell debris were pelleted by centrifugation at 1000 rpm for 10 min and tryptase and leukotriene C4 levels were measured.
To measure tryptase levels, 25 μL of supernatant from each well was transferred to a fresh 96-well black bottom plate, to which 100 μL of fresh tryptase substrate solution [(Z-Ala-Lys-Arg-AMC2TFA; Enzyme Systems Products, #AMC-246)] 1:2000 in tryptase assay buffer [0.1 M Hepes (pH 7.5), 10% w/v Glycerol, 10 μM Heparin (Sigma H-4898) 0.01% NaN3] was added. After 30 minute incubation at room temperature, the optical density of the plates is measured at 355 nm/460 nm on a spectrophotometric plate reader. Table 1 provides the IC50 values.
Compounds of the disclosure were assayed for their ability to inhibit mast cell activation induced by FcγR cross-linking by measuring the activity of tryptase released upon degranulation. The IC50 values for the LD Tryptase assay are presented in Table 2, in which “0” is >100 μM; “A” is 1-100 μM; “B” is 0.5-1 μM; “C” is 0.1-0.5 μM; and “D” is less than 0.1 μM: […]
`CC1(C)Oc2ccc(Nc3nc(Nc4ccc(N5CC[C@H](CO)C5)nc4)ncc3F)nc2NC1=O` [Compound 71, N4-(2,2-dimethyl-3,4-dihydro-3-oxo-2H-pyrido[3,2-b][1,4]oxazin-6-yl)-5-fluoro-N2-[6-((3S)-3-(hydroxymethyl)pyrrolidin-1-yl)pyridin-3-yl]-2,4-pyrimidinediamine]: the IC50 was in the range of 100 to 500 nM. Turning to `CC1(C)Oc2ccc(Nc3nc(Nc4ccc(N5CCC(O)CC5)cc4)ncc3F)nc2NC1=O` [Compound 77, N4-(2,2-dimethyl-3,4-dihydro-3-oxo-2H-pyrido[3,2-b][1,4]oxazin-6-yl)-5-fluoro-N2-[4-(4-hydroxypiperidin-1-yl)phenyl]-2,4-pyrimidinediamine], the 50% inhibitory concentration (IC50) is under 100 nM. Turning to `CC1(C)Oc2ccc(Nc3nc(Nc4ccc(N5CCOCC5=O)cc4)ncc3F)nc2NC1=O` [Compound 40, N4-(2,2-dimethyl-3,4-dihydro-3-oxo-2H-pyrido[3,2-b][1,4]oxazin-6-yl)-5-fluoro-N2-[4-(morpholin-2-one)phenyl]-2,4-pyrimidinediamine], the IC50 lay in the range of 100 to 500 nM. For `CN(C[C@H]1CCCO1)c1ccc(Nc2ncc(F)c(Nc3ccc4c(n3)NC(=O)CO4)n2)cn1` [Compound 110, N4-(3,4-dihydro-3-oxo-2H-pyrido[3,2-b][1,4]oxazin-6-yl)-5-fluoro-N2-[6-(((R)-methyl(tetrahydrofuran-2-yl)methyl)amino)pyridin-3-yl]-2,4-pyrimidinediamine] the value was 1000 to 100000 nM; for `CN(c1ccc(Nc2ncc(F)c(Nc3ccc4c(n3)NC(=O)C(C)(C)O4)n2)cn1)C1CCOCC1` [Compound 143, N4-(2,2-dimethyl-3,4-dihydro-3-oxo-2H-pyrido[3,2-b][1,4]oxazin-6-yl)-5-fluoro-N2-[6-(methyl(tetrahydro-2H-pyran-4-yl)amino)pyridin-3-yl]-2,4-pyrimidinediamine], under 100 nM. In the case of `CC1(C)Oc2ccc(Nc3nc(Nc4ccc(N5CCC(O)CC5)nc4)ncc3F)nc2NC1=O` [Compound 52, N4-(2,2-dimethyl-3,4-dihydro-3-oxo-2H-pyrido[3,2-b][1,4]oxazin-6-yl)-5-fluoro-N2-[6-(4-hydroxypiperidin-1-yl)pyridin-3-yl]-2,4-pyrimidinediamine], the IC50 is under 100 nM. The value for `CC1(C)Oc2ccc(Nc3nc(Nc4ccc(N5CC[C@@H](O)C5)nc4)ncc3F)nc2NC1=O` [Compound 64, N4-(2,2-dimethyl-3,4-dihydro-3-oxo-2H-pyrido[3,2-b][1,4]oxazin-6-yl)-5-fluoro-N2-[6-((3R)-3-hydroxypyrrolidin-1-yl)pyridin-3-yl]-2,4-pyrimidinediamine] was 100 to 500 nM.

Consider `CC1(C)Oc2ccc(Nc3nc(Nc4ccc(N5CCC(O)C5)nc4)ncc3F)nc2NC1=O` (stereo in doubt) [Compound 55, N4-(2,2-dimethyl-3,4-dihydro-3-oxo-2H-pyrido[3,2-b][1,4]oxazin-6-yl)-5-fluoro-N2-[6-((3R)-3-hydroxypyrrolidin-1-yl)pyridin-3-yl]-2,4-pyrimidinediamine], for which the IC50 was under 100 nM. The value for `CCOC[C@@H]1CN(c2ccc(Nc3ncc(F)c(Nc4ccc5c(n4)NC(=O)CO5)n3)cn2)CCO1` [Compound 100, N4-(3,4-dihydro-3-oxo-2H-pyrido[3,2-b][1,4]oxazin-6-yl)-N2-[6-(((2S)-2-ethoxymethyl)morpholino)pyridin-3-yl]-5-fluoro-2,4-pyrimidinediamine] was 100 to 500 nM; that for `C[C@@H]1CN(c2ccc(Nc3ncc(F)c(Nc4ccc5c(n4)NC(=O)CO5)n3)cc2)C[C@H](C)O1` [Compound 35, rac-Cis-N4-(3,4-dihydro-3-oxo-2H-pyrido[3,2-b][1,4]oxazin-6-yl)-5-fluoro-N2-[4-(2,6-dimethylmorpholino)phenyl]-2,4-pyrimidinediamine] was 100 to 500 nM.

Regarding `CC1(C)Oc2ccc(Nc3nc(Nc4ccc(N5CCC(F)(F)CC5)cc4)ncc3F)nc2NC1=O` [Compound 29, N4-(2,2-dimethyl-3,4-dihydro-3-oxo-2H-pyrido[3,2-b][1,4]oxazin-6-yl)-5-fluoro-N2-[4-(4,4-difluoro-1-piperidinyl)phenyl]-2,4-pyrimidinediamine], the IC50 is 1000 to 100000 nM. The value for `Cc1ccc(Nc2ncc(F)c(Nc3ccc4c(n3)NC(=O)C(C)(C)O4)n2)cn1` [Compound 76, N4-(2,2-dimethyl-3,4-dihydro-3-oxo-2H-pyrido[3,2-b][1,4]oxazin-6-yl)-5-fluoro-N2-[6-methylpyridin-3-yl]-2,4-pyrimidinediamine] was 100 to 500 nM; that for `C[C@H]1COCCN1c1ccc(Nc2ncc(F)c(Nc3ccc4c(n3)NC(=O)C(C)(C)O4)n2)cc1` [Compound 120, N4-(2,2-dimethyl-3,4-dihydro-3-oxo-2H-pyrido[3,2-b][1,4]oxazin-6-yl)-5-fluoro-N2-[4-((3S)-3-methylmorpholino)phenyl]-2,4-pyrimidinediamine] was 100 to 500 nM; that for `C[C@H]1COCCN1c1ccc(Nc2ncc(F)c(Nc3ccc4c(n3)NC(=O)C(C)(C)O4)n2)cn1` [Compound 138, N4-(2,2-dimethyl-3,4-dihydro-3-oxo-2H-pyrido[3,2-b][1,4]oxazin-6-yl)-5-fluoro-N2-[6-((3S)-3-methylmorpholino)pyridin-3-yl]-2,4-pyrimidinediamine] was 100 to 500 nM. For `C[C@H]1CN(c2ccc(Nc3ncc(F)c(Nc4ccc5c(n4)NC(=O)C(C)(C)O5)n3)cn2)CCO1` [Compound 94, N4-(2,2-dimethyl-3,4-dihydro-3-oxo-2H-pyrido[3,2-b][1,4]oxazin-6-yl)-5-fluoro-N2-[6-((2S)-2-methylmorpholino)pyridin-3-yl]-2,4-pyrimidinediamine] the value was 100 to 500 nM; for `CC1(C)Oc2ccc(Nc3nc(Nc4cnc(N5CCOCC5)c(F)c4)ncc3F)nc2NC1=O` [Compound 10, N4-(2,2-dimethyl-3,4-dihydro-3-oxo-2H-pyrido[3,2-b][1,4]oxazin-6-yl)-5-fluoro-N2-[5-fluoro-6-morpholinopyridin-3-yl]-2,4-pyrimidinediamine], 100 to 500 nM; for `CC1(C)CN(c2ccc(Nc3ncc(F)c(Nc4ccc5c(n4)NC(=O)CO5)n3)cc2)CCO1` [Compound 115, N4-(3,4-dihydro-3-oxo-2H-pyrido[3,2-b][1,4]oxazin-6-yl)-N2-[4-(2,2-dimethylmorpholino)phenyl]-5-fluoro-2,4-pyrimidinediamine], under 100 nM. The value for `CC1(C)Oc2ccc(Nc3nc(Nc4ccc(N5CCC(C(N)=O)CC5)cc4)ncc3F)nc2NC1=O` [Compound 150, N4-(2,2-dimethyl-3,4-dihydro-3-oxo-2H-pyrido[3,2-b][1,4]oxazin-6-yl)-5-fluoro-N2-[4-(4-(aminocarbonyl)piperidin-1-yl)phenyl]-2,4-pyrimidinediamine] was 100 to 500 nM; that for `O=C1Nc2nc(Nc3nc(Nc4ccc(N5CCOCC5)cc4)ncc3F)ccc2OC12CCC2` [Compound 123, 5-Fluoro-N2-(4-morpholinophenyl)-N4-(3′-oxo-3′,4′-dihydrospiro[cyclobutane-1,2′-pyrido[3,2-b][1,4]oxazine]-6-yl)-2,4-pyrimidinediamine] was 100 to 500 nM. On to `CC1(C)Oc2ccc(Nc3nc(Nc4ccc(N5CCCOCC5)cc4)ncc3F)nc2NC1=O` [Compound 43, N4-(2,2-dimethyl-3,4-dihydro-3-oxo-2H-pyrido[3,2-b][1,4]oxazin-6-yl)-5-fluoro-N2-[4-homomorpholinophenyl]-2,4-pyrimidinediamine], for which the IC50 fell in the range of 100 to 500 nM. The value for `C[C@H]1COCCN1c1ccc(Nc2ncc(F)c(Nc3ccc4c(n3)NC(=O)CO4)n2)cc1` [Compound 119, N4-(3,4-dihydro-3-oxo-2H-pyrido[3,2-b][1,4]oxazin-6-yl)-5-fluoro-N2-[4-((3S)-3-methylmorpholino)phenyl]-2,4-pyrimidinediamine] was under 100 nM; that for `CN1CCN(c2ccc(Nc3ncc(F)c(Nc4ccc5c(n4)NC(=O)CO5)n3)cn2)CC1` [Compound 19, N4-(3,4-dihydro-3-oxo-2H-pyrido[3,2-b][1,4]oxazin-6-yl)-5-fluoro-N2-[6-(4-methylpiperazin-1-yl)pyridin-3-yl]-2,4-pyrimidinediamine] was 1000 to 100000 nM. The value for `[2H]C1([2H])OC([2H])([2H])C([2H])([2H])N(c2ccc(Nc3ncc(F)c(Nc4ccc5c(n4)NC(=O)C(C)(C)O5)n3)cn2)C1([2H])[2H]` [Compound 107, N4-(2,2-dimethyl-3,4-dihydro-3-oxo-2H-pyrido[3,2-b][1,4]oxazin-6-yl)-5-fluoro-N2-[6-(2,2,3,3,5,5,6,6-d8-morpholino)pyridin-3-yl]-2,4-pyrimidinediamine] was under 100 nM.
